Laboratory results: US10385037B2, “4′-O-substituted isoindoline derivatives and compositions comprising and methods of using the same” (Celgene Corporation, priority 2007, dated 2019)

Compound | melting point
CS(=O)(=O)c1ccc(COc2cccc3c2C(=O)N(C2CCC(=O)NC2=O)C3=O)cc1 (stereo not drawn) [Example 11, 2-(2,6-Dioxo-piperidin-3-yl)-4-(4-methanesulfonyl-benzyloxy)-isoindole-1,3-dione] | 293 to 295 °C
COc1cccc(COc2cccc3c2C(=O)N(C2CCC(=O)NC2=O)C3=O)c1 (stereo not drawn) [Example 12, 2-(2,6-Dioxo-piperidin-3-yl)-4-(3-methoxy-benzyloxy)-isoindole-1,3-dione] | 197 to 201 °C
O=C1CCC(N2C(=O)c3cccc(OCc4ccc5c(c4)OCO5)c3C2=O)C(=O)N1 (stereo not drawn) [Example 13, 4-(Benzo[1,3]dioxol-5-ylmethoxy)-2-(2,6-dioxo-piperidin-3-yl)-isoindole-1,3-dione] | 229 to 231 °C
O=C1CCC(N2C(=O)c3cccc(OCc4ccc5ccccc5c4)c3C2=O)C(=O)N1 (stereo not drawn) [Example 14, 2-(2,6-Dioxo-piperidin-3-yl)-(naphthalene-2-ylmethoxy)-isoindole-1,3-dione] | > 260 °C
O=C1CCC(N2C(=O)c3cccc(OCc4cnc5ccccc5c4)c3C2=O)C(=O)N1 (stereo not drawn) [Example 15, 2-(2,6-Dioxo-piperidin-3-yl)-4-(quinolin-3-ylmethoxy)-isoindole-1,3-dione] | 263 to 265 °C
O=C1CCC(N2C(=O)c3cccc(OCc4ccc5ccccc5n4)c3C2=O)C(=O)N1 (stereo not drawn) [Example 16, 2-(2,6-Dioxo-piperidin-3-yl)-(quinolin-2-ylmethoxy)-isoindole-1,3-dione] | 254 to 256 °C
O=C1CCC(N2C(=O)c3cccc(OCc4cc5ccccc5o4)c3C2=O)C(=O)N1 (stereo not drawn) [Example 17, 4-(Benzofuran-2-ylmethoxy)-2-(2,6-dioxo-piperidin-3-yl)-isoindole-1,3-dione] | 234 to 236 °C
CC(Oc1cccc2c1C(=O)N(C1CCC(=O)NC1=O)C2=O)c1ccc2ccccc2c1 (stereo not drawn) [Example 23, 2-(2,6-Dioxo-piperidin-3-yl)-4-(1-naphthalen-2-yl-ethoxy)-isoindole-1,3-dione] | 174 to 176 °C
COc1ccc(COc2cccc3c2C(=O)N(C2CCC(=O)NC2=O)C3=O)cc1 (stereo not drawn) [Example 24, 2-(2,6-Dioxo-piperidin-3-yl)-4-(4-methoxy-benzyloxy)-isoindole-1,3-dione] | 178 to 180 °C

Continued, values first:

melting point | Compound
249 to 251 °C | O=C1CCC(N2C(=O)c3cccc(OCc4cccc(Cl)c4)c3C2=O)C(=O)N1 (stereo not drawn) [Example 4, 4-(3-Chloro-benzyloxy)-2-(2,6-dioxo-piperidin-3-yl)-isoindole-1,3-dione]
239 to 241 °C | O=C1CCC(N2C(=O)c3cccc(OCc4ccc(Cl)cc4)c3C2=O)C(=O)N1 (stereo not drawn) [Example 5, 4-(4-Chloro-benzyloxy)-2-(2,6-dioxo-piperidin-3-yl)-isoindole-1,3-dione]
245 to 247 °C | O=C1CCC(N2C(=O)c3cccc(OCc4ccc(Cl)c(Cl)c4)c3C2=O)C(=O)N1 (stereo not drawn) [Example 6, 4-(3,4-Dichloro-benzyloxy)-2-(2,6-dioxo-piperidin-3-yl)-isoindole-1,3-dione]
278 to 280 °C | O=C1CCC(N2C(=O)c3cccc(OCc4cc(Cl)cc(Cl)c4)c3C2=O)C(=O)N1 (stereo not drawn) [Example 7, 4-(3,5-Dichloro-benzyloxy)-2-(2,6-dioxo-piperidin-3-yl)-isoindole-1,3-dione]
241 to 243 °C | O=C1CCC(N2C(=O)c3cccc(OCc4cccc(F)c4)c3C2=O)C(=O)N1 (stereo not drawn) [Example 8, 4-(3-Fluoro-benzyloxy)-2-(2,6-dioxo-piperidin-3-yl)-isoindole-1,3-dione]
246 to 248 °C | O=C1CCC(N2C(=O)c3cccc(OCc4cccc(Br)c4)c3C2=O)C(=O)N1 (stereo not drawn) [Example 9, 4-(3-Bromo-benzyloxy)-2-(2,6-dioxo-piperidin-3-yl)-isoindole-1,3-dione]
195 to 197 °C | Cc1cccc(COc2cccc3c2C(=O)N(C2CCC(=O)NC2=O)C3=O)c1 (stereo not drawn) [Example 10, 2-(2,6-Dioxo-piperidin-3-yl)-4-(3-methyl-benzyloxy)-isoindole-1,3-dione]
247 to 249 °C | O=C1CCC(N2C(=O)c3cccc(OCc4cc5ccccc5s4)c3C2=O)C(=O)N1 (stereo not drawn) [Example 18, 4-(Benzo[b]thiophen-2-ylmethoxy)-2-(2,6-dioxo-piperidin-3-yl)-isoindole-1,3-dione]
184 to 186 °C | O=C1CCC(N2C(=O)c3cccc(OCc4ccco4)c3C2=O)C(=O)N1 (stereo not drawn) [Example 19, 2-(2,6-Dioxo-piperidin-3-yl)-4-(furan-2-ylmethoxy)-isoindole-1,3-dione]
240 to 242 °C | O=C1CCC(N2C(=O)c3cccc(OCc4sc5ccccc5c4Cl)c3C2=O)C(=O)N1 (stereo not drawn) [Example 20, 4-(3-Chloro-benzo[b]thiophen-2-ylmethoxy)-2-(2,6-dioxo-piperidin-3-yl)-isoindole-1,3-dione]
264 to 266 °C | O=C1CCC(N2C(=O)c3cccc(OCc4cc5c(F)cccc5s4)c3C2=O)C(=O)N1 (stereo not drawn) [Example 21, 2-(2,6-Dioxo-piperidin-3-yl)-4-(4-fluoro-benzo[b]thiophen-2-ylmethoxy)-isoindole-1,3-dione]
217 to 219 °C | O=C1CCC(N2C(=O)c3cccc(OCc4ccc(Cl)s4)c3C2=O)C(=O)N1 (stereo not drawn) [Example 22]
